Assay results as given in ChEMBL document CHEMBL4393657, “Tetrazole hybrids and their antifungal activities” (2019).
Converted amounts (≈) assume the structure as drawn.

Legend:
Type in all cases: functional
Candida albicans [1] = assay: Antifungal activity against Candida albicans NCCS 3471 assessed as inhibition zone at 50 ug/ml incubated for 3 to 4 days by disk diffusion method; details: read-out: IZ
Aspergillus fumigatus = assay: Antifungal activity against Aspergillus fumigatus NCIM 902 assessed as inhibition zone at 50 ug/ml incubated for 3 to 4 days by disk diffusion method; details: read-out: IZ
Candida albicans [2] = assay: Antifungal activity against Candida albicans assessed as inhibition zone at 250 ug/ml; details: read-out: IZ
Aspergillus niger [3] = assay: Antifungal activity against Aspergillus niger assessed as inhibition zone at 250 ug/ml; details: read-out: IZ
Candida albicans [4] = assay: Antifungal activity against Candida albicans assessed as inhibition zone at 125 ug/ml by disk diffusion method; details: read-out: IZ
Candida albicans [5] = assay: Antifungal activity against Candida albicans assessed as reduction in fungal cell growth incubated for 48 hrs by broth microdilution susceptibility method
Candida albicans [6] = assay: In vivo antifungal activity against Candida albicans TA infected in CDF-1 mouse dosed orally assessed as survival of mouse; details: po
Candida albicans [7] = assay: Antifungal activity against Candida albicans TA
Aspergillus niger [8] = assay: Antifungal activity against Aspergillus niger assessed as reduction in fungal cell growth incubated for 48 hrs by broth microdilution susceptibility method
Aspergillus flavus = assay: Antifungal activity against Aspergillus flavus assessed as reduction in fungal cell growth incubated for 24 and 72 hrs by cup plate method
Fusarium oxysporum = assay: Antifungal activity against Fusarium oxysporum assessed as reduction in fungal cell growth incubated for 24 and 72 hrs by cup plate method
Candida albicans [9] = assay: Antifungal activity against Candida albicans assessed as reduction in fungal cell growth incubated for 24 and 72 hrs by cup plate method

`Brc1ccc(-n2nnnc2-c2cccnc2)cc1` showed a zone of inhibition at 50 µg/mL (Candida albicans [1]) of 19 mm and a zone of inhibition at 50 µg/mL (Aspergillus fumigatus) of 17 mm.
`COc1cc(-c2nnnn2-c2nc3ccccc3s2)cc(OC)c1OC` gave a zone of inhibition at 250 µg/mL (Candida albicans [2]) of 13 to 23 mm and a zone of inhibition at 250 µg/mL (Aspergillus niger [3]) of 13 to 23 mm.
`Clc1cccc(-n2nnnc2-c2cccnc2)c1Cl` was tested, and the zone of inhibition at 50 µg/mL (Candida albicans [1]) was 16 mm and the zone of inhibition at 50 µg/mL (Aspergillus fumigatus) was 18 mm.
`Clc1ccc(-n2nnnc2-c2cccnc2)cc1` showed a zone of inhibition at 50 µg/mL (Candida albicans [1]) of 10 to 19 mm and a zone of inhibition at 50 µg/mL (Aspergillus fumigatus) of 10 to 19 mm.
`O=C(O)c1ccc(/N=C/c2cc3cc(-c4nc5ccccc5[nH]4)ccc3n3nnnc23)cc1` gave a zone of inhibition at 125 µg/mL (Candida albicans [4]) of 7 to 12 mm.
`O=C(O)c1cccc(/N=C/c2cc3cc(-c4nc5ccccc5[nH]4)ccc3n3nnnc23)c1` showed a zone of inhibition at 125 µg/mL (Candida albicans [4]) of 7 to 12 mm.
In the case of `Cc1ccc(N2C(=O)/C(=C\c3ccccc3)C(=O)N(/N=C/c3cc4ccccc4n4nnnc34)C2=S)cc1`, the MIC (Candida albicans [5]) is reported as no less than 100 µg/mL.
`Clc1ccccc1C(c1ccccc1)(c1ccccc1)n1ccnc1` [CLOTRIMAZOLE] was tested, and the MIC (Candida albicans [5]) was 12.5 µg/mL (≈ 36.2 µM).
With `Cc1ccc(/N=C/c2cc3cc(-c4nc5ccccc5[nH]4)ccc3n3nnnc23)cc1` the zone of inhibition at 125 µg/mL (Candida albicans [4]) was 7 to 12 mm.
`C[C@@H](n1cnnn1)[C@](O)(Cn1cncn1)c1ccc(F)cc1` showed an ED50 (Candida albicans [6]) of 0.18 to 1.54 mg/kg and an MIC (Candida albicans [7]) of 12.5 to 100 µg/mL (≈ 41.2 to 330 µM).
In the case of `O=C1CC(=O)N(c2ccc(Cl)cc2)C(=S)N1/N=C/c1cc2ccccc2n2nnnc12`, the MIC (Candida albicans [5]) is reported as no less than 100 µg/mL.
`O=C1/C(=C/c2ccccc2)C(=O)N(c2ccccc2)C(=S)N1/N=C/c1cc2ccccc2n2nnnc12` gave an MIC (Candida albicans [5]) of no less than 100 µg/mL.
Work on `COc1ccc(-n2nnnc2-c2cccnc2)cc1` yielded a zone of inhibition at 50 µg/mL (Candida albicans [1]) of 10 to 19 mm and a zone of inhibition at 50 µg/mL (Aspergillus fumigatus) of 10 to 19 mm.
`Oc1ccc(/N=C/c2cc3cc(-c4nc5ccccc5[nH]4)ccc3n3nnnc23)cc1` showed a zone of inhibition at 125 µg/mL (Candida albicans [4]) of 7 to 12 mm.
`Cc1ccc(N2C(=O)/C(=C\c3ccc(N(C)C)cc3)C(=O)N(/N=C/c3cc4ccccc4n4nnnc34)C2=S)cc1` gave an MIC (Candida albicans [5]) of no less than 100 µg/mL.
For `Cc1ccc(-c2nnn(-c3[se]nnc3-c3ccc(Cl)cc3)n2)cc1`, the MIC (Aspergillus niger [8]) was 100 to 400 µg/mL (≈ 249 to 996 µM) and the MIC (Candida albicans [5]) was 100 to 400 µg/mL (≈ 249 to 996 µM).
In the case of `C[C@@H](n1nnn(-c2ccc(OC(F)(F)F)cc2)c1=O)[C@](O)(Cn1cncn1)c1ccccc1`, the ED50 (Candida albicans [6]) is reported as 0.71 to 2 mg/kg.
Work on `c1ccc(-c2nnnn2-c2nc3ccccc3s2)cc1` yielded a zone of inhibition at 250 µg/mL (Candida albicans [2]) of 13 to 23 mm and a zone of inhibition at 250 µg/mL (Aspergillus niger [3]) of 13 to 23 mm.
In the case of `Clc1ccccc1-n1nnnc1-c1cccnc1`, the zone of inhibition at 50 µg/mL (Candida albicans [1]) is reported as 17 mm and the zone of inhibition at 50 µg/mL (Aspergillus fumigatus) is reported as 15 mm.
Work on `O=C1/C(=C/c2ccccc2)C(=O)N(c2ccc(Cl)cc2)C(=S)N1/N=C/c1cc2ccccc2n2nnnc12` yielded an MIC (Candida albicans [5]) of no less than 100 µg/mL.
`C[C@@H](n1cnnn1)[C@](O)(Cn1cncn1)c1ccc(Cl)cc1` gave an ED50 (Candida albicans [6]) of 0.18 to 1.54 mg/kg and an MIC (Candida albicans [7]) of 12.5 to 100 µg/mL (≈ 39.1 to 313 µM).
For `Clc1ccc(-c2nnnn2-c2nc3ccccc3s2)cc1`, the zone of inhibition at 250 µg/mL (Candida albicans [2]) was 13 to 23 mm and the zone of inhibition at 250 µg/mL (Aspergillus niger [3]) was 13 to 23 mm.
With `CN(C)c1ccc(-c2nnnn2-c2nc3ccccc3s2)cc1` the zone of inhibition at 250 µg/mL (Candida albicans [2]) was 13 to 23 mm and the zone of inhibition at 250 µg/mL (Aspergillus niger [3]) was 13 to 23 mm.
Molecule `C[C@@H](n1ncnn1)[C@](O)(Cn1cncn1)c1ccccc1F` has an MIC (Candida albicans [7]) of 100 µg/mL (≈ 330 µM).
With `C[C@@H](n1nnn(-c2ccc(OCC(F)(F)F)cc2)c1=O)[C@](O)(Cn1cncn1)c1ccccc1` the ED50 (Candida albicans [6]) was 0.71 to 2 mg/kg.
`Oc1cccc(-c2nnnn2-c2nc3ccccc3s2)c1` was tested, and the zone of inhibition at 250 µg/mL (Candida albicans [2]) was 13 to 23 mm and the zone of inhibition at 250 µg/mL (Aspergillus niger [3]) was 13 to 23 mm.
`Cc1ccc2cc(C3CC(c4cc(Br)ccc4O)=NN3)c3nnnn3c2c1` (centres undefined) was tested, and the MIC (Aspergillus flavus) was 25 to 100 µg/mL (≈ 59.1 to 236 µM), the MIC (Fusarium oxysporum) was 25 to 100 µg/mL (≈ 59.1 to 236 µM) and the MIC (Candida albicans [9]) was 25 to 100 µg/mL (≈ 59.1 to 236 µM).
With `C[C@@H](n1nnn(-c2ccc(OCC(F)(F)C(F)F)cc2)c1=O)[C@](O)(Cn1cncn1)c1ccccc1` the ED50 (Candida albicans [6]) was 0.71 to 2 mg/kg.
For `Oc1ccc(-c2nnnn2-c2nc3ccccc3s2)cc1`, the zone of inhibition at 250 µg/mL (Candida albicans [2]) was 13 to 23 mm and the zone of inhibition at 250 µg/mL (Aspergillus niger [3]) was 13 to 23 mm.
With `CCOC(=O)C(C#N)C(c1cc2c(C)cccc2n2nnnc12)P(=O)(OCC)OCC` (centres undefined) the MIC (Aspergillus flavus) was 10 to 25 µg/mL (≈ 22.5 to 56.1 µM), the MIC (Fusarium oxysporum) was 10 to 25 µg/mL (≈ 22.5 to 56.1 µM) and the MIC (Candida albicans [9]) was 10 to 25 µg/mL (≈ 22.5 to 56.1 µM).
In the case of `COc1ccc(-c2nn[se]c2-n2nnc(-c3ccccc3)n2)cc1`, the MIC (Aspergillus niger [8]) is reported as 100 to 400 µg/mL (≈ 261 to 1040 µM) and the MIC (Candida albicans [5]) is reported as 100 to 400 µg/mL (≈ 261 to 1040 µM).
`CCOC(=O)C(C#N)C(c1cc2c(OCC)cccc2n2nnnc12)P(=O)(OCC)OCC` (centres undefined) was tested, and the MIC (Aspergillus flavus) was 10 to 25 µg/mL (≈ 21 to 52.6 µM), the MIC (Fusarium oxysporum) was 10 to 25 µg/mL (≈ 21 to 52.6 µM) and the MIC (Candida albicans [9]) was 10 to 25 µg/mL (≈ 21 to 52.6 µM).
Molecule `Cc1ccc(-c2nnnn2-c2nc3ccccc3s2)cc1` has a zone of inhibition at 250 µg/mL (Candida albicans [2]) of 13 to 23 mm and a zone of inhibition at 250 µg/mL (Aspergillus niger [3]) of 13 to 23 mm.
For `Cc1ccc(-n2nnnc2-c2cccnc2)cc1`, the zone of inhibition at 50 µg/mL (Candida albicans [1]) was 10 to 19 mm and the zone of inhibition at 50 µg/mL (Aspergillus fumigatus) was 10 to 19 mm.
`S=C1N=C(c2ccccc2)CC(c2cc3ccccc3n3nnnc23)N1` (centres undefined) showed an MIC (Candida albicans [5]) of no less than 100 µg/mL.
Molecule `COc1ccc(-c2nn[se]c2-n2nnc(-c3ccccc3Cl)n2)cc1` has an MIC (Aspergillus niger [8]) of 100 to 400 µg/mL (≈ 239 to 958 µM) and an MIC (Candida albicans [5]) of 100 to 400 µg/mL (≈ 239 to 958 µM).
`CCOC(=O)C(C#N)C(c1cc2ccccc2n2nnnc12)P(=O)(OCC)OCC` (centres undefined) gave an MIC (Aspergillus flavus) of 10 to 25 µg/mL (≈ 23.2 to 58 µM), an MIC (Fusarium oxysporum) of 10 to 25 µg/mL (≈ 23.2 to 58 µM) and an MIC (Candida albicans [9]) of 10 to 25 µg/mL (≈ 23.2 to 58 µM).
`S=C1N=C(c2ccc(Cl)cc2)CC(c2cc3ccccc3n3nnnc23)N1` (centres undefined) showed an MIC (Candida albicans [5]) of no less than 100 µg/mL.
